System: human fibroblasts (ATCC-CRL-2703)
Experiment: Fibroblast proliferation, MTT coloration
Assay type: cell-based
Procedure: These supramolecular complexes were tested to evaluate the stimulatory activity on human fibroblasts (ATCC-CRL-2703). […] Cells were exposed to each complex for 24 and 48 hours (medium was replaced every 24 h) at 37° C. and 5% CO2. At the end of incubation period, MTT coloration was performed in order to evaluate cell viability and the increasing proliferating rate compared to untreated control cells. For each determination 6 tests were carried out. After exposure, cells were washed with […] of PBS, then 200 μl of MTT-medium are added to each culture well and incubated for 4 hours at 37° C. and 5% CO2. MTT medium is then removed and 200 μl of MTT dissolving solution (10% Triton X-100 and 0.1 N HCl in dry isopropanol) were added. After shaking on a rotating plate for 20-30′ to dissolve crystals and homogenize the solution, absorbance was read at 570 nm; background reading at 690 nm.

NCCCCNCCCN [Spermidine (Spd) 3HCl, N-(3-aminopropyl)-1,4-butanediamine]
% Proliferative increase at 24 h (Spd 3HCl 10 nM): 31.86%
% Proliferative increase at 48 h (Spd 3HCl 10 nM): 35.96%
% Proliferative increase at 24 h (Spd 3HCl 100 nM): 26.27%
% Proliferative increase at 48 h (Spd 3HCl 100 nM): 29.39%
% Proliferative increase at 24 h (Spd 3HCl 1 μM): 7.55%
% Proliferative increase at 48 h (Spd 3HCl 1 μM): 13.01%
% Proliferative increase at 24 h (Spd 3HCl 10 μM): 2.3%
% Proliferative increase at 48 h (Spd 3HCl 10 μM): 8.48%
% Proliferative increase at 24 h (Spd 3HCl 100 μM): 1.31%
% Proliferative increase at 48 h (Spd 3HCl 100 μM): 4.09%
% Proliferative increase at 24 h (Spd 3HCl 1 mM): −0.16%
% Proliferative increase at 48 h (Spd 3HCl 1 mM): −3.22%
% Proliferative increase at 24 h (Spd 3HCl 10 mM): −9.85%
% Proliferative increase at 48 h (Spd 3HCl 10 mM): −9.5%
effect on fibroblast proliferation at mmolar concentration (mmolar concentration): suppressive effect
pattern of the proliferative effect over concentration (serial dilution): bimodal pattern
effect on fibroblast proliferation at μmolar or nmolar levels (μmolar or nmolar levels): positive effect

Source: US20160101067A1, “SUPRAMOLECULAR COMPLEXES OF POLYANIONIC POLYMERS AND SPERMIDINE IN TISSUE MAINTENANCE AND REPAIR” (TIXUPHARMA, priority 2013, published 2016)
